Reference: patent US11331306B2, “Pharmaceutical compositions comprising 4-[1-(2,3-dimethylphenyl)ethyl]-3H-imidazole derivatives for treating retinal diseases” (Allergan, Inc., priority 2011, dated 2022)
Where two headings read alike, the source gives them in different places.

Key:
α2A-adrenergic receptor = target: T1, α2A-adrenergic receptor (Homo sapiens, UniProt P08913); conditions: for down regulation of alpha 2A receptor (receptor density): binding studies, result in words; for Percent of B max Decrease: 24 hours, HEK 293T cells stably transfected with α2A-adrenergic receptor
T1 sequence (P08913 1-465): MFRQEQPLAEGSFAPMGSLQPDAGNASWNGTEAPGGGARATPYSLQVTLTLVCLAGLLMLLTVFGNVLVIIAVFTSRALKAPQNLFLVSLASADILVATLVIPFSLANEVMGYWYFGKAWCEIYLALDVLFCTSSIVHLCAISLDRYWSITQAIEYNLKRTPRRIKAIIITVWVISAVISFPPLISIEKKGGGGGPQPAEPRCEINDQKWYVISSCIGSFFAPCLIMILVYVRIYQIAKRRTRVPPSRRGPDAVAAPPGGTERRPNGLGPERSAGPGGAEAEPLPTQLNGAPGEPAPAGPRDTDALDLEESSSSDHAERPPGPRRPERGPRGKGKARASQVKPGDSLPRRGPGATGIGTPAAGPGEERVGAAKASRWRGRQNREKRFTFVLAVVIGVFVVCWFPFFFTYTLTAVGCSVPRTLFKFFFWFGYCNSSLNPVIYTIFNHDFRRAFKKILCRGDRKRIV
Description: Human embryonic kidney (HEK) 293T cells stably transfected with the α2A-adrenergic receptor were grown to 50-60% confluency on T-175 culture flasks in DMEM (Gibco, cat. #11995), 10% FBS (Gibco, cat. #16140), 0.25 μg/ml puromycin (Sigma, cat. # P-8833), and 1% antibiotic-antimycotic (Gibco, cat. #15240) maintained at 37° C. and 5% CO2. […] The cells were then washed with room temperature Dulbecco's phosphate buffered saline (DPBS; Gibco, cat. #14190).
Cells were harvested with 4° C. Tris-EDTA buffer [50 mM Tris-HCl, 5 mM EDTA; pH 7.4] and centrifuged at 5,000×g for 5 minutes at 4° C. Membrane preparation was conducted by resuspending the cell pellets in 4° C. Tris-EDTA buffer and lysed with a Polytron disrupter two times (setting 7, 5 seconds each). The lysed suspension was then centrifuged at […] for 32 minutes at 4° C. After decanting the supernatant, the pelleted material was further lysed in 4° C. Tris buffer [50 mM Tris-HCl; pH 8.0] using the Polytron disrupter (setting 4, 5 seconds). Membranes were then aliquoted, pelleted at […] for 32 minutes at 4° C., and stored at −80° C. until use.
Membranes were thawed and resuspended using a Polytron disrupter in 4° C. HBSS-HEPES buffer [1 part 1M HEPES: 5 parts 10× Hank's Balanced Salt Solution: 43.8 parts H2O; pH 7.4 with KOH) and quantified via Bradford assay. The quantified protein was further diluted with HBSS-HEPES buffer to achieve a 100 μg/ml concentration. Membrane suspension was plated in a 96-well plate at 200 IμLs/well±10 μM phentolamine HCl (Sigma, cat. # P-7547) and [Methyl-^3H] Rauwolscine (15 nM to 0.05 nM; PerkinElmer, cat. # NET722250UC). The assay plate was slowly shaken and incubated at 25° C. for ninety minutes. Immediately following the above incubation, the assays were terminated by vacuum filtration over GF/B filters. Filters were then washed with 4° C. HBSS-HEPES buffer. The incorporated [Methyl-^3H] Rauwolscine was determined using a Microbeta 1450B liquid scintillation counter after the plates had dried overnight.

alpha 2A receptor = target: T2, alpha 2A receptor (Homo sapiens, UniProt P08913); experiment: biochemical; conditions: for Relative Efficacy: efficacy relative to the full agonist brimonidine (1.0)
T2 sequence (P08913 1-465): T1 sequence (P08913 1-465)
Description: In the GTPase assay, receptor activation results in dissociation of GDP and binding of the nonhydrolyzable [^35S]GTPyS to receptor-coupled G-proteins. The extent of binding is a measure of receptor activation. Membranes were prepared from HEK cells transiently expressing the alpha 2A receptor and the three subunits of the Gi G-protein. Membranes were thawed and resuspended using a Polytron disrupter in 4° C. membrane buffer and quantified via Bradford assay. The quantified protein was then added to reaction buffer [50 mM Tris-HCl, 100 mM NaCl, 5 mM MgCl2, 1 mM DTT, 1 mM EDTA, 3 μM propranolol, and 0.1 mM AMP; pH 7.4 and 4° C. to achieve a 100 μg/ml concentration, allowed to incubate for 15 minutes, and then incubated for an additional 10 minutes in the presence of 6 μM GDP. The above mixture was then aliquoted, 50 μL/well, in a 96 well plate, combined with an equal volume of test compound dissolved in assay buffer [50 mM Tris-HCl, 100 mM NaCl, 5 mM MgCl2, 1 mM EDTA, and 1 mM DTT, pH 7.4 and 4° C.], and allowed to incubate for 5 minutes. Immediately following the above incubation, the mixture was combined with 50 μL of 1.5 nM [^35S]GTPyS in assay buffer and shaken covered for 60 minutes at 25° C. Assays were terminated by vacuum filtration over GF/B filters blocked with 0.5% BSA. Filters were then washed with 4° C. wash buffer [50 mM Tris-HCl, 100 mM NaCl, and 5 mM MgCl2, pH 7.5. The incorporated [^35S]GTPyS was determined using a Microbeta 1450B liquid scintillation counter after the plates had dried overnight.

[1] = drug level in the retina under continuous subcutaneous infusion; type: in vivo, Sprague Dawley rats; conditions: rats, continuous subcutaneous infusion pumps, 1 mg/kg/day
Description: (§1) Drugs were administered continuously with subcutaneous infusion pumps at a dose of 1 mg/kg/day starting two days before blue light exposure. These concentrations result in drug levels in the retina of 2.3 ng/g OH-dexmedetomidine which are sufficient for pharmacological activity. Twenty 4-month old male Sprague Dawley rats (body weight 470-550 g) were used in this study. The animals were exposed to room light on a 12 hour light/12 hour dark cycle before the experiment. All animals were dark adapted overnight (16-20 hours) before blue light. Under the intensity of 6100-6500 lux, rats were exposed to blue light for 4 hours. After the blue light, rats were placed in the dark for another 3 days before returning to normal 12 hour light/12 hour dark. Ocular Coherence Tomography (OCT) measurement was performed at 7 days post blue light exposure. […] Histology studies have shown that the reduction in retinal thickness is attributable to loss of photoreceptors.

[2] = tested on: blue light model of retinal degeneration in rats; experiment: blue light model of retinal degeneration, retinal thickness by OCT; type: in vivo, Sprague Dawley rats; conditions: 1 mg/kg/day subcutaneous infusion from two days before 4 hours blue light, OCT at 7 days post exposure, versus saline
Description: as §1

Structure (SMILES) | down regulation of alpha 2A receptor (receptor density) (α2A-adrenergic receptor) | Percent of B max Decrease (α2A-adrenergic receptor; compound concentration 1 μM) [%] | Percent of B max Decrease (α2A-adrenergic receptor; compound concentration 10 μM) [%] | EC50 (alpha 2A receptor) [nM] | Relative Efficacy (alpha 2A receptor) | drug levels in the retina [1] [ng/g] | damage caused by blue light (reduction of retinal thickness measured by OCT) [2] | damage caused by blue light (reduction of retinal thickness measured by OCT) ([2]; listed as (S) [3-(1-(1H-imidazol-4-yl)ethyl)-2-methylphenyl] methanol)
Brc1c(N=C2NCCN2)ccc2nccnc12 [brimonidine, (5-bromo-quinoxalin-6-yl)-imidazolidin-2-ylidene-amine, reference compound] | strong reduction in the alpha 2A receptor density | −45 | −60 | – | – | – | – | –
Cc1c(CO)cccc1C(C)c1c[nH]cn1 (racemic) [OH-medetomidine, [3-(1-(1H-imidazol-4-yl)ethyl)-2-methylphenyl] methanol, reference compound] | – | – | – | 20 | 0.26 | – | – | –
Cc1c(CO)cccc1[C@H](C)c1c[nH]cn1 [OH-dexmedetomidine, (S) [3-(1-(1H-imidazol-4-yl)ethyl)-2-methylphenyl] methanol] | very little down regulation of alpha 2A receptor | −25 | −14 | 45 | 0.65 | 2.3 | significantly reduced the damage caused by blue light | reduced the damage caused by blue light
